Reference: patent US12479823B2, “Compound for use in retinal diseases” (ZHUHAI UNITED LABORATORIES CO., LTD., priority 2018, dated 2025)
Read-outs that look alike come from different tables or passages of the source.

Legend:
[1] = In vitro aldehyde capture capacity test (complexing with nonanal, HPLC at 254 nm); details: for Area under the curve AUC / Slope (linear equation of percentage content of complexed products vs time): nonanal 1.0 eq, compound 1.0 eq, 20-23° C., 10-300 min, HPLC 254 nm; for Slope (linear equation of percentage content of complexed products vs time): in %/min
Procedure: Objective: dry eye disease is caused by inflammation in eyes, wherein the inflammation may produce aldehydes that will accelerate the inflammation symptoms and worsen the dry eye disease if not eliminated in time. In the experiment, a better compound was selected according to the complexing capacity of the drug and aldehydes in vivo by simulating the in vivo environment.
Procedures: Sulfobutyl-B-cyclodextrin (310 mg) was dissolved in a phosphate buffer (1.25 mL) to prepare a solution.
Nonanal (5.0 mg, 32 μmol, 1.0 eq) and triolein (300 mg) were added to a reaction flask at room temperature, after addition of the prepared solution described above, linoleic acid (300 mg) was added, and finally a dimethyl sulfoxide (0.15 ml) solution containing the compound (32 μmol, 1.0 eq) of the present disclosure was added; the reaction solution was reacted at 20-23° C.
The reaction solution was reacted under stirring for 10 min, 100 min, 200 min, and 300 min respectively, and sampled for high performance liquid chromatography after the solution was stratified after standing for 2 min.
Sampling method: 25 μl of an upper emulsified layer and 50 μl of a lower aqueous phase were sampled by a pipette, and samples were diluted with 1 mL of methanol.
The ultraviolet absorption of the nonanal was weak at 254 nm, so the nonanal had little overall effect on the content of complexed products. Therefore, the percentage contents of complexes at 254 nm under high performance liquid chromatography were compared to observe aldehyde capture and complexing capacities, as shown in FIG. 1 and Table 1:
Taking The compound 7 as an example, after 300 min of reaction, the analytical method for HPLC was XBRIGE 2.5 μm, 3.0*100 mm 5-80CD_XBEH_12 min_0.8.1 cm;
Retention time 6.689 min, 6.787 min, 6.966 min, and 7.102 min were absorption peaks of products complexed with monomolecular aldehyde;
Retention time 8.905 min, 9.010 min, and 9.075 min were absorption peaks of products complexed with bimolecular aldehyde.

[2] = Corneal and plasma drug concentration after eye drops in rats; type: in vivo; details: for entry into the cornea by eye drops: SD rats, result in words
Procedure: Objective: To Study the Ratio of Corneal to Plasma Drug Concentration After Eye Drops in Rats
Experimental Materials: Male SD Rats, 200-300 g, 7-9 weeks old, Shanghai Lingchang
Experimental procedures: The candidate compound was prepared as a clear solution, and administered to SD rats by eye drops. The vehicle for eye drops was 10% hydroxypropyl β-cyclodextrin aqueous solution, and the drug concentration in the eye drops was 5 mg/mL. Corneal and whole blood samples were collected at 1 and 4 hours, respectively. The corneal samples was homogenized in 15 mM phosphate buffer (PBS): MeoH (2:1, v: v) buffer, the whole blood samples were centrifuged at 3000 r for 10 min, and the supernatant plasma samples were separated. 20 μL of the plasma samples and homogenate samples were mixed with 400 μL of acetonitrile precipitated proteins containing an internal standard, respectively, and 2 μL of the supernatant was injected by centrifugation. The plasma concentrations were quantified by LC-MS/MS analysis; the drug concentrations in the cornea and plasma were measured respectively according to different time points, and the ratio of corneal/plasma concentrations was calculated.

CYP3A4 = biological target: T1, CYP3A4 (Homo sapiens, UniProt P08684); experiment: Inhibition of human liver microsomal cytochrome P450 CYP3A4; type: in vitro ADME; details: human liver microsomes, two probe substrates, NADPH
T1 construct: fused human liver microsomes were selected as a CYP450 enzyme source; from tissue; host or cells: pooled ("fused") human liver microsomes
T1 sequence (P08684 whole entry, the tested form may be a part): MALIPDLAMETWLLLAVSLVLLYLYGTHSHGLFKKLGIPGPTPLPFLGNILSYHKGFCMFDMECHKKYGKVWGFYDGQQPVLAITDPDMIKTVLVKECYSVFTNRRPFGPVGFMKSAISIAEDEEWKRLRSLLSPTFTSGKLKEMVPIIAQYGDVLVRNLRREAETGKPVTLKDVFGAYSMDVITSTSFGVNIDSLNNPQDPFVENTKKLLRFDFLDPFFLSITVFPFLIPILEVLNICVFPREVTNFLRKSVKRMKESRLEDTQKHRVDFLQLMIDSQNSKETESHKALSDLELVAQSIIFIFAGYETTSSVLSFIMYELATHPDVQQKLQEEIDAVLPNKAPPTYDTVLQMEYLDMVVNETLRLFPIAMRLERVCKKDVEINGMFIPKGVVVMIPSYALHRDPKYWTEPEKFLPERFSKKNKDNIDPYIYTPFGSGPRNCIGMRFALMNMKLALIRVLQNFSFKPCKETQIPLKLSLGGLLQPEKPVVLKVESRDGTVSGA
From the text: (§1) Objective: To study the inhibitory effect of compounds on human liver microsomal cytochrome P450. Experimental procedures: In the study on inhibition of the compounds on the human liver microsomal cytochrome P450 (CYP1A2, CYP2C9, CYP2C19, CYP2D6 and CYP3A4), fused human liver microsomes were selected as a CYP450 enzyme source. […]

CYP2D6 = biological target: T2, CYP2D6 (Homo sapiens, UniProt P10635); experiment: Inhibition of human liver microsomal cytochrome P450 CYP2D6; type: in vitro ADME; details: human liver microsomes, probe substrate, NADPH
T2 construct: fused human liver microsomes were selected as a CYP450 enzyme source; from tissue; host or cells: pooled ("fused") human liver microsomes
T2 sequence (P10635 whole entry, the tested form may be a part): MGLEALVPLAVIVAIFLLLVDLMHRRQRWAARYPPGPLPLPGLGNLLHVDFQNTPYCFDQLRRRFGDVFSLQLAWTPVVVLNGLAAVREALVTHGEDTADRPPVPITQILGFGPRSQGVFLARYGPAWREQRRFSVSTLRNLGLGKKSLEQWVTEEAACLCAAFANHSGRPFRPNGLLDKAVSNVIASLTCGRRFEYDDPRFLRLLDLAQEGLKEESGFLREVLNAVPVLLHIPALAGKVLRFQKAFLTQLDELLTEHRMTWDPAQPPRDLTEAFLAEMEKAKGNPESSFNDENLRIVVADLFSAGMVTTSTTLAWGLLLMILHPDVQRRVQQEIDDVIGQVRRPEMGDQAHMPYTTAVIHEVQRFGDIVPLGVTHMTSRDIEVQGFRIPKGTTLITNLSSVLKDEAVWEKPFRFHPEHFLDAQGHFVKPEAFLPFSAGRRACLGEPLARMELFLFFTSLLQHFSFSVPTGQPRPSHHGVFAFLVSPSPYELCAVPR
From the text: as §1

CYP2C9 = biological target: T3, CYP2C9 (Homo sapiens, UniProt P11712); experiment: Inhibition of human liver microsomal cytochrome P450 CYP2C9; type: in vitro ADME; details: human liver microsomes, probe substrate, NADPH
T3 construct: fused human liver microsomes were selected as a CYP450 enzyme source; from tissue; host or cells: pooled ("fused") human liver microsomes
T3 sequence (P11712 whole entry, the tested form may be a part): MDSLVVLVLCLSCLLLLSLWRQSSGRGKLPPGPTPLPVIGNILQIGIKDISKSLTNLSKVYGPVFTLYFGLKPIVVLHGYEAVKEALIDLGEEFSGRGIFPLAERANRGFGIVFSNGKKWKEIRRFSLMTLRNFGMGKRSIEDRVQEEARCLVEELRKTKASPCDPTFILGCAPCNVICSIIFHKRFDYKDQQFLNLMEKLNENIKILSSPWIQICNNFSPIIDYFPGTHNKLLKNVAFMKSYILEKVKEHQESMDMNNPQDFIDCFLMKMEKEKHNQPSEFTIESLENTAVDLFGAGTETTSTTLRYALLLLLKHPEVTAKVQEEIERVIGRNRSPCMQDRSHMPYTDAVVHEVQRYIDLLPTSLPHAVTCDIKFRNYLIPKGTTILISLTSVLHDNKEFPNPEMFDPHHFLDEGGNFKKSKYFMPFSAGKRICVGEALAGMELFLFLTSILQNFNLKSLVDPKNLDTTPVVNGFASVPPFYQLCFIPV
From the text: as §1

CYP2C19 = biological target: T4, CYP2C19 (Homo sapiens, UniProt P33261); experiment: Inhibition of human liver microsomal cytochrome P450 CYP2C19; type: in vitro ADME; details: human liver microsomes, probe substrate, NADPH
T4 construct: fused human liver microsomes were selected as a CYP450 enzyme source; from tissue; host or cells: pooled ("fused") human liver microsomes
T4 sequence (P33261 whole entry, the tested form may be a part): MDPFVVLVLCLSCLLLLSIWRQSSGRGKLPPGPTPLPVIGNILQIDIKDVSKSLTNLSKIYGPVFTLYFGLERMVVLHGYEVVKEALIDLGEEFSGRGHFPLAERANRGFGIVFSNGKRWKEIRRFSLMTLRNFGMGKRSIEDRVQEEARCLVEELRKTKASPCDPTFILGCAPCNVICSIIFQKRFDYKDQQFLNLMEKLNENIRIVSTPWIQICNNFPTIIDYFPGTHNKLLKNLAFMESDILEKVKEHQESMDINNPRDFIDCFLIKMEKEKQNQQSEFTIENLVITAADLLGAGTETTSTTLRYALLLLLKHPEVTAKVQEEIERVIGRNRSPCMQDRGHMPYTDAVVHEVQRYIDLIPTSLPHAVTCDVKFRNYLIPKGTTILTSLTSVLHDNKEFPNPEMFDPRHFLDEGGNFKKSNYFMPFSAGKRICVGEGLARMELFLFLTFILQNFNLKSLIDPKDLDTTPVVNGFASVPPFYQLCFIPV
From the text: as §1

CYP1A2 = biological target: T5, CYP1A2 (Homo sapiens, UniProt P05177); experiment: Inhibition of human liver microsomal cytochrome P450 CYP1A2; type: in vitro ADME; details: human liver microsomes, probe substrate, NADPH
T5 construct: fused human liver microsomes were selected as a CYP450 enzyme source; from tissue; host or cells: pooled ("fused") human liver microsomes
T5 sequence (P05177 1-516): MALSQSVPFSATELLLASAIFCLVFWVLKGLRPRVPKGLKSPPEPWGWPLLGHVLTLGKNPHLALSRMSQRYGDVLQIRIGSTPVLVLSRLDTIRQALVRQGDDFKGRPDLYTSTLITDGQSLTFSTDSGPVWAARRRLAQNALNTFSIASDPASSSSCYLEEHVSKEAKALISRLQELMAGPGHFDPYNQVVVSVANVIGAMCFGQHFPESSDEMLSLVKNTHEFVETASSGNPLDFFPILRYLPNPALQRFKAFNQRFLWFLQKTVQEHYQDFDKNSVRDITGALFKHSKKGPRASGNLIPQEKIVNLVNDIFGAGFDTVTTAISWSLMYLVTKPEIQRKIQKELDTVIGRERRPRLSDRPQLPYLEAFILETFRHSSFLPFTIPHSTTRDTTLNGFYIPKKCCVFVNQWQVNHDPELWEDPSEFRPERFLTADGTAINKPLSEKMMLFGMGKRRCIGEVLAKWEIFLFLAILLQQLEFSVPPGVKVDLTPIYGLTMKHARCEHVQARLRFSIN
From the text: as §1

SMILES: CC(C)(O)c1nc(-c2ccc(N)c(C(C)(C)O)n2)ccc1N [Compound 1]
- percentage content of complexed products at 254 nm ([1]; Time 10 min): 0.917%
- percentage content of complexed products at 254 nm ([1]; Time 100 min): 4.909%
- percentage content of complexed products at 254 nm ([1]; Time 200 min): 4.383%
- percentage content of complexed products at 254 nm ([1]; Time 300 min): 6.224%
- Area under the curve AUC [1]: 1257 min. Conversion
- Slope (linear equation of percentage content of complexed products vs time) [1]: 0.0157

SMILES: CC(C)(O)c1cc(F)c(Oc2ccc(N)c(C(C)(C)O)n2)cc1N [Compound 6]
- percentage content of complexed products at 254 nm ([1]; Time 10 min): 9.738%
- percentage content of complexed products at 254 nm ([1]; Time 100 min): 27.850%
- percentage content of complexed products at 254 nm ([1]; Time 200 min): 37.847%
- percentage content of complexed products at 254 nm ([1]; Time 300 min): 41.686%
- Area under the curve AUC [1]: 8953 min. Conversion
- Slope (linear equation of percentage content of complexed products vs time) [1]: 0.1083

SMILES: CC(C)(O)c1cc(F)c(-c2cnc(C(C)(C)O)c(N)c2)cc1N [Compound 7]
- entry into the cornea by eye drops [2]: could enter the cornea by eye drops
- percentage content of complexed products at 254 nm ([1]; Time 10 min): 6.634%
- percentage content of complexed products at 254 nm ([1]; Time 100 min): 20.013%
- percentage content of complexed products at 254 nm ([1]; Time 200 min): 29.424%
- percentage content of complexed products at 254 nm ([1]; Time 300 min): 36.039%
- Area under the curve AUC [1]: 6944 min. Conversion
- Slope (linear equation of percentage content of complexed products vs time) [1]: 0.1002

SMILES: CC(C)(O)c1ncc(-c2cnc(C(C)(C)O)c(N)c2)cc1N [Compound 4]
- percentage content of complexed products at 254 nm ([1]; Time 10 min): 1.475%
- percentage content of complexed products at 254 nm ([1]; Time 100 min): 7.663%
- percentage content of complexed products at 254 nm ([1]; Time 200 min): 13.353%
- percentage content of complexed products at 254 nm ([1]; Time 300 min): 18.636%
- Area under the curve AUC [1]: 3061 min. Conversion
- Slope (linear equation of percentage content of complexed products vs time) [1]: 0.0589

SMILES: CC(C)(O)c1nc(Oc2ccc(N)c(C(C)(C)O)n2)ccc1N [Compound 2]
- percentage content of complexed products at 254 nm ([1]; Time 10 min): 2.658%
- percentage content of complexed products at 254 nm ([1]; Time 100 min): 4.097%
- percentage content of complexed products at 254 nm ([1]; Time 200 min): 4.721%
- percentage content of complexed products at 254 nm ([1]; Time 300 min): 5.796%
- Area under the curve AUC [1]: 1271 min. Conversion
- Slope (linear equation of percentage content of complexed products vs time) [1]: 0.0103

SMILES: CC(C)(O)c1cc(Cl)c(-c2cnc(C(C)(C)O)c(N)c2)cc1N [Compound 8]
- entry into the cornea by eye drops [2]: could enter the cornea by eye drops
- concentration at 1 h ([2]; male, Sprague-Dawley (SD), rat, cornea, topical, eye drops 5 mg/mL, 1 h, read-out: Corneal Concentration): 1660 nM
- concentration at 4 h ([2]; male, Sprague-Dawley (SD), rat, cornea, topical, eye drops 5 mg/mL, 4 h, read-out: Corneal Concentration): 167 nM
- Kp at 1 h ([2]; male, Sprague-Dawley (SD), rat, cornea/plasma, topical, eye drops 5 mg/mL, 1 h, read-out: Corneal Concentration/Plasma Concentration C/P ratio): 12
- Kp at 4 h ([2]; male, Sprague-Dawley (SD), rat, cornea/plasma, topical, eye drops 5 mg/mL, 4 h, read-out: Corneal Concentration/Plasma Concentration C/P ratio): 3.72
- concentration at 1 h ([2]; male, Sprague-Dawley (SD), rat, plasma, topical, eye drops 5 mg/mL, 1 h, read-out: Plasma Concentration): 148 nM
- concentration at 4 h ([2]; male, Sprague-Dawley (SD), rat, plasma, topical, eye drops 5 mg/mL, 4 h, read-out: Plasma Concentration): 36.4 nM
- IC50 (CYP3A4): > 50 µM
- IC50 (CYP2D6): > 50 µM
- IC50 (CYP2C9): > 50 µM
- IC50 (CYP2C19): > 50 µM
- IC50 (CYP1A2): > 50 µM
- percentage content of complexed products at 254 nm ([1]; Time 10 min): 4.117%
- percentage content of complexed products at 254 nm ([1]; Time 100 min): 12.121%
- percentage content of complexed products at 254 nm ([1]; Time 200 min): 15.49%
- percentage content of complexed products at 254 nm ([1]; Time 300 min): 19.873%
- Area under the curve AUC [1]: 3879 min. Conversion
- Slope (linear equation of percentage content of complexed products vs time) [1]: 0.0519

SMILES: CC(C)(O)c1ccc(-n2cc(C(C)(C)O)c(N)cc2=O)cc1N [Compound 9]
- percentage content of complexed products at 254 nm ([1]; Time 10 min): 12.268%
- percentage content of complexed products at 254 nm ([1]; Time 100 min): 31.427%
- percentage content of complexed products at 254 nm ([1]; Time 200 min): 43.086%
- percentage content of complexed products at 254 nm ([1]; Time 300 min): 48.761%
- Area under the curve AUC [1]: 10284 min. Conversion
- Slope (linear equation of percentage content of complexed products vs time) [1]: 0.1241
